In publication PMC9405123, “Design, Synthesis and Mechanistic Studies of Novel Isatin-Pyrazole Hydrazone Conjugates as Selective and Potent Bacterial MetAP Inhibitors” (Antibiotics, 2022):
Converted amounts (≈) assume the structure as drawn. Read-outs that look alike come from different tables or passages of the source.

Legend:
E. faecalis [1] = experiment: Growth inhibition screening (broth dilution); format: cell-based, Enterococcus faecalis; details: Enterococcus faecalis
Method: (§1) In vitro screening of the compounds (PS1–14) was performed to assess the antibacterial activity against three Gram-positive (Staphylococcus aureus, Enterococcus faecalis and Bacillus subtilis,) and three Gram-negative (Pseudomonas aeruginosa, Klebsiella pneumonia and Escherichia coli) bacterial strains using the standard NCCLS broth dilution assay. The study’s standard drugs were ciprofloxacin (CIP) and ampicillin (AMP). Compounds were dissolved in a polar solvent (DMSO) and distributed into a 96-well plate in 200 µL of nutrient broth medium, with a final concentration of the compounds […] in each well. The bacterial cells (about 2.5 × 10^5 cells/mL) were inoculated into each well and incubated at 37 °C overnight. After incubation, the growth was measured by turbidity of the culture at 590 nm by spectrophotometer.

B. subtilis [2] = experiment: Growth inhibition screening (broth dilution); format: cell-based, Bacillus subtilis; details: Bacillus subtilis
Method: as §1

S. aureus [3] = experiment: Growth inhibition screening (broth dilution); format: cell-based, Staphylococcus aureus; details: Staphylococcus aureus
Method: as §1

P. aeruginosa [4] = experiment: Growth inhibition screening (broth dilution); format: cell-based, Pseudomonas aeruginosa; details: Pseudomonas aeruginosa
Method: as §1

E. coli [5] = experiment: Growth inhibition screening (broth dilution); format: cell-based, Escherichia coli; details: Escherichia coli
Method: as §1

K. pneumoniae [6] = experiment: Growth inhibition screening (broth dilution); format: cell-based, Klebsiella pneumonia; details: Klebsiella pneumoniae
Method: as §1

E. faecalis [7] = experiment: Minimum inhibitory concentration (broth dilution); format: cell-based; details: Enterococcus faecalis, alone
B. subtilis [8] = experiment: Minimum inhibitory concentration (broth dilution); format: cell-based; details: Bacillus subtilis, alone
S. aureus [9] = experiment: Minimum inhibitory concentration (broth dilution); format: cell-based; details: Staphylococcus aureus, alone
P. aeruginosa [10] = experiment: Minimum inhibitory concentration (broth dilution); format: cell-based; details: Pseudomonas aeruginosa, alone
E. coli [11] = experiment: Minimum inhibitory concentration (broth dilution); format: cell-based, Escherichia coli; details: alone
K. pneumoniae [12] = experiment: Minimum inhibitory concentration (broth dilution); format: cell-based, Klebsiella pneumonia; details: Klebsiella pneumoniae, alone, read-out: MIC
E. faecalis [13] = experiment: Combination study with AMP or CIP
S. aureus [14] = experiment: Combination study with AMP or CIP
P. aeruginosa [15] = experiment: Combination study with AMP or CIP; details: combination PS9 + AMP
E. coli [16] = experiment: Combination study with AMP or CIP; details: combination PS9 + AMP
K. pneumoniae [17] = experiment: Combination study with AMP or CIP
HK1 = experiment: MIC on environmental MDR isolate (microdilution)
HK32 = experiment: MIC on environmental MDR isolate (microdilution); details: Enterobacter cloacae
HK41 = experiment: MIC on environmental MDR isolate (microdilution); details: Enterobacter cloacae
HK43 = experiment: MIC on environmental MDR isolate (microdilution); details: Exiguobacterium mexicanum
HK91 = experiment: MIC on environmental MDR isolate (microdilution); details: Ralstonia
SH28 = experiment: MIC on environmental MDR isolate (microdilution); details: Aeromonas caviae
SH34 = experiment: MIC on environmental MDR isolate (microdilution); details: Serratia marcescens
LG20 = experiment: MIC on environmental MDR isolate (microdilution); details: Enterobacter, isolate LG20 Enterobacter sp.
LG24 = experiment: MIC on environmental MDR isolate (microdilution); details: Escherichia coli
LG33 = experiment: MIC on environmental MDR isolate (microdilution); details: Enterobacter
LG51 = experiment: MIC on environmental MDR isolate (microdilution); details: Escherichia coli
LG71 = experiment: MIC on environmental MDR isolate (microdilution); details: Enterobacter cloacae
JST28 = experiment: MIC on environmental MDR isolate (microdilution); details: Escherichia coli
JST61 = experiment: MIC on environmental MDR isolate (microdilution); details: Pantoea agglomerans
JST63 = experiment: MIC on environmental MDR isolate (microdilution)
JST68 = experiment: MIC on environmental MDR isolate (microdilution); details: Escherichia coli
JST71 = experiment: MIC on environmental MDR isolate (microdilution); details: Enterobacter
JST78 = experiment: MIC on environmental MDR isolate (microdilution); details: Escherichia coli
SD5 = experiment: MIC on environmental MDR isolate (microdilution); details: Escherichia coli, isolate SD5 E. coli
SD6 = experiment: MIC on environmental MDR isolate (microdilution); details: Escherichia coli, isolate SD6 E. coli
Staphylococcus aureus = details: cited from earlier work

## CC1(C)S[C@@H]2[C@H](NC(=O)[C@H](N)c3ccccc3)C(=O)N2[C@H]1C(=O)O [AMP, ampicillin, reference compound]
E. faecalis [1]
  inhibition at 250 µg/mL: 100%
B. subtilis [2]
  inhibition at 250 µg/mL: 100%
S. aureus [3]
  inhibition at 250 µg/mL: 100%
P. aeruginosa [4]
  inhibition at 250 µg/mL: 100%
E. coli [5]
  inhibition at 250 µg/mL: 100%
K. pneumoniae [6]
  inhibition at 250 µg/mL: 100%
E. faecalis [7]
  MIC: 16 µg/mL (≈ 45.8 µM)
B. subtilis [8]
  MIC: 0.25 µg/mL (≈ 0.715 µM)
S. aureus [9]
  MIC: 0.25 µg/mL (≈ 0.715 µM)
P. aeruginosa [10]
  MIC: 1 µg/mL (≈ 2.86 µM)
E. coli [11]; Escherichia coli, read-out: MIC
  MIC: 1 µg/mL (≈ 2.86 µM)
E. coli [11]
  MIC: 1 µg/mL (≈ 2.86 µM)
K. pneumoniae [12]
  MIC: 2 µg/mL (≈ 5.72 µM)
E. faecalis [13]; combination PS6 + AMP
  MIC in Combination: 0.50 µg/mL
E. faecalis [13]; combination PS9 + AMP
  MIC in Combination: 0.5 µg/mL
S. aureus [14]; combination PS6 + AMP
  MIC in Combination: 0.0625 µg/mL
S. aureus [14]; combination PS9 + AMP
  MIC in Combination: 0.0625 µg/mL
P. aeruginosa [15]
  MIC in Combination: 0.25 µg/mL
E. coli [16]
  MIC in Combination: 0.25 µg/mL
K. pneumoniae [17]; combination PS6 + AMP
  MIC in Combination: 0.25 µg/mL
K. pneumoniae [17]; combination PS9 + AMP
  MIC in Combination: 0.5 µg/mL
HK1
  MIC: 256 µg/mL (≈ 733 µM)
HK32
  MIC: 1020 µg/mL (≈ 2930 µM)
HK41
  MIC: 256 µg/mL (≈ 733 µM)
HK43
  MIC: 1020 µg/mL (≈ 2930 µM)
HK91
  MIC: 8 µg/mL (≈ 22.9 µM)
SH28
  MIC: 16 µg/mL (≈ 45.8 µM)
SH34
  MIC: 8 µg/mL (≈ 22.9 µM)
LG20
  MIC: 32 µg/mL (≈ 91.6 µM)
LG24
  MIC: < 2 µg/mL
LG33
  MIC: 8 µg/mL (≈ 22.9 µM)
LG51
  MIC: 1020 µg/mL (≈ 2930 µM)
LG71
  MIC: 512 µg/mL (≈ 1470 µM)
JST28
  MIC: 1020 µg/mL (≈ 2930 µM)
JST61
  MIC: 128 µg/mL (≈ 366 µM)
JST63
  MIC: 128 µg/mL (≈ 366 µM)
JST68
  MIC: 64 µg/mL (≈ 183 µM)
JST71
  MIC: 1020 µg/mL (≈ 2930 µM)
JST78
  MIC: > 1020 µg/mL
SD5
  MIC: 32 µg/mL (≈ 91.6 µM)
SD6
  MIC: 1000 µg/mL (≈ 2860 µM)

## COc1ccc([C@]2(C)[C@@H](Cl)C(=O)N2NC(=O)c2cc(-c3ccc(Cl)cc3)n[nH]2)cc1 [C]
Staphylococcus aureus
  MIC: 0.0025 µg/mL (≈ 0.00561 µM)

## O=C1Nc2ccc(Cl)cc2/C1=N/NC(=O)c1ccc(N2C(=O)/C(=C\c3ccccc3)N=C2c2ccccc2)cc1 [B]
Staphylococcus aureus
  MIC: 12 µg/mL (≈ 22 µM)
